Experimental data: US20240228458A1, “PYRIMIDINE DERIVATIVE HAVING PROTEIN KINASE INHIBITORY ACTIVITY, AND THERAPEUTIC PHARMACEUTICAL COMPOSITION COMPRISING SAME” (THERAPEX CO., LTD., priority 2021, published 2024)

What was measured:
Type in all cases: cell-based
[1] = test system: Ba/F3 cells expressing EGFR-wt; assay: Growth inhibition (GI50) of Ba/F3 cells expressing EGFR-wt, Celltiter glo; details: Mus musculus, BaF3, 72 h
Method: (§1) In this experimental example, a determination was made as to whether the compounds prepared in Examples 1-283 have the ability to inhibit the growth of Ba/F3 cells expressing EGFR-wt, del19/T790M/C797S (EGFR-DTC), L858R/T790M/C797S (EGFR-LTC), del19/T790M (EGFR-DT), and L858R/T790M (EGFR-LT) variants.
(§2) The parental Ba/F3 cell line is a population of cells that are not introduced with EGFR variants. Specifically, 100 μl of a cell line expressing each variant was plated in a 96-well plate at a density of 100,000 cells/ml. 10-point, 4-fold serial dilutions of each compound were prepared, starting at 2 mM. After 4 h, 0.5 μl of the compound (0.5% DMSO) was added, followed by incubation at 37° C. and 5% CO2 for 72 h. After incubation, the number of viable cells was measured using a Celltiter glo assay kit (Promega) and the GI50 of the compound was determined. The term “GI50” refers to the molar concentration (μM) of the compound required for 50% growth inhibition of cells.

[2] = test system: parental Ba/F3 cell line; assay: Growth inhibition (GI50) of the parental Ba/F3 cell line (not introduced with EGFR variants), Celltiter glo; details: Mus musculus, BaF3, 72 h, parental Ba/F3 cells
Method: as §2

[3] = test system: Ba/F3 cells expressing L858R/T790M/C797S (EGFR-LTC); assay: Growth inhibition (GI50) of Ba/F3 cells expressing L858R/T790M/C797S (EGFR-LTC), Celltiter glo; details: Mus musculus, BaF3, 72 h
Method: as §1, §2

[4] = test system: Ba/F3 cells expressing del19/T790M/C797S (EGFR-DTC); assay: Growth inhibition (GI50) of Ba/F3 cells expressing del19/T790M/C797S (EGFR-DTC), Celltiter glo; details: Mus musculus, BaF3, 72 h
Method: as §1, §2

Row | SMILES | GI50 [1] | GI50 [3] | GI50 [4] | GI50 [2]
1 | COc1nc(N2CCC(F)(F)CC2)ccc1Nc1ncc(Br)c(Nc2ccc(F)cc2NS(C)(=O)=O)n1 [Example 33, N-(2-((5-Bromo-2-((6-(4,4-difluoropiperidin-1-yl)-2-methoxypyridin-3-yl)amino)pyrimidin-4-yl)amino)-5-fluorophenyl)methanesulfonamide] | 2000 to 10000 nM | 2000 to 10000 nM | 2000 to 10000 nM | 2000 to 10000 nM
2 | CN1CCN(C2CCN(c3nc(Cl)c(Nc4ncc(Br)c(Nc5ccc(F)cc5NS(C)(=O)=O)n4)cc3C(F)(F)F)CC2)CC1 [Example 34, N-(2-((5-bromo-2-((2-chloro-6-(4-(4-methylpiperazin-1-yl)piperidin-1-yl)-5-(trifluoromethyl)pyridin-3-yl)amino)pyrimidin-4-yl)amino)-5-fluorophenyl)methanesulfonamide] | 2000 to 10000 nM | 100 to 500 nM | 500 to 2000 nM | 2000 to 10000 nM
3 | COc1nc(N2CCN(C3CCN(C)CC3)CC2)c(C(F)(F)F)cc1Nc1ncc(Br)c(Nc2ccc(F)cc2NS(C)(=O)=O)n1 [Example 37] | > 10000 nM | > 10000 nM | > 10000 nM | > 10000 nM
4 | COc1cc(N2CCC(Nc3ccnn3C)CC2)c(C)cc1Nc1ncc(Br)c(Nc2ccc(F)cc2NS(C)(=O)=O)n1 [Example 41, N-(2-((5-bromo-2-((2-methoxy-5-methyl-4-(4-((1-methyl-1H-pyrazol-5-yl)amino)piperidin-1-yl)phenyl)amino)pyrimidin-4-yl)amino)-5-fluorophenyl)methanesulfonamide] | 500 to 2000 nM | 500 to 2000 nM | 100 to 500 nM | 2000 to 10000 nM
5 | COc1cc(N2CCC(N3CCN(C4CC4)CC3)CC2)c(C)cc1Nc1ncc(Br)c(Nc2ccc(F)cc2NS(C)(=O)=O)n1 [Example 42, N-(2-((5-bromo-2-((4-(4-(4-cyclopropylpiperazin-1-yl)piperidin-1-yl)-2-methoxy-5-methylphenyl)amino)pyrimidin-4-yl)amino)-5-fluorophenyl)methanesulfonamide] | 500 to 2000 nM | 100 to 500 nM | 25 to 100 nM | 500 to 2000 nM
6 | COc1nc(N2CCC(N3CCN(C)CC3)CC2)ccc1Nc1ncc(Cl)c(Nc2ccccc2CS(C)(=O)=O)n1 [Example 64] | 2000 to 10000 nM | 500 to 2000 nM | 500 to 2000 nM | 2000 to 10000 nM
7 | COc1cc(N2CCC(N3CCN(C)CC3)CC2)c(C)cc1Nc1ncc(Cl)c(Nc2cc(Cl)ccc2NC(C)=O)n1 [Example 65, N-(4-chloro-2-((5-chloro-2-((2-methoxy-5-methyl-4-(4-(4-methylpiperazin-1-yl)piperidin-1-yl)phenyl)amino)pyrimidin-4-yl)amino)phenyl)acetamide] | 500 to 2000 nM | 100 to 500 nM | 100 to 500 nM | 500 to 2000 nM
8 | COc1nc(N2CCC(N3CCN(C)CC3)CC2)c(C)cc1Nc1ncc(Cl)c(Nc2cc(Cl)ccc2NC(C)=O)n1 [Example 66, N-(4-chloro-2-((5-chloro-2-((2-methoxy-5-methyl-6-(4-(4-methylpiperazin-1-yl)piperidin-1-yl)pyridin-3-yl)amino)pyrimidin-4-yl)amino)phenyl)acetamide] | 500 to 2000 nM | 100 to 500 nM | 500 to 2000 nM | 2000 to 10000 nM
9 | COc1cc(N2CCC(N3CCN(C)CC3)CC2)c(C)cc1Nc1ncc(Cl)c(Nc2ccccc2NC(C)=O)n1 [Example 68, N-(2-((5-chloro-2-((2-methoxy-5-methyl-4-(4-(4-methylpiperazin-1-yl)piperidin-1-yl)phenyl)amino)pyrimidin-4-yl)amino)phenyl)acetamide] | 2000 to 10000 nM | 2000 to 10000 nM | 500 to 2000 nM | 2000 to 10000 nM
10 | COc1nc(N2CCC(N3CCN(C)CC3)CC2)ccc1Nc1ncc(Cl)c(Nc2cc(Cl)c(Cl)cc2NC(C)=O)n1 [Example 72] | 500 to 2000 nM | 500 to 2000 nM | 500 to 2000 nM | 2000 to 10000 nM
11 | CC(=O)Nc1cc(Cl)c(Cl)cc1Nc1nc(Nc2cnc(N3CCC(N4CCN(C)CC4)CC3)c(F)c2)ncc1Cl [Example 73, N-(4,5-dichloro-2-((5-chloro-2-((5-fluoro-6-(4-(4-methylpiperazin-1-yl)piperidin-1-yl)pyridin-3-yl)amino)pyrimidin-4-yl)amino)phenyl)acetamide] | 500 to 2000 nM | 500 to 2000 nM | 500 to 2000 nM | 2000 to 10000 nM
12 | CC(=O)Nc1cc(Cl)c(Cl)cc1Nc1nc(Nc2ccc(N3CCOCC3)nc2)ncc1Cl [Example 74, N-(4,5-dichloro-2-((5-chloro-2-((6-morpholinopyridin-3-yl)amino)pyrimidin-4-yl)amino)phenyl)acetamide] | > 10000 nM | 2000 to 10000 nM | 2000 to 10000 nM | > 10000 nM
13 | CC(=O)Nc1cc(Cl)c(Cl)cc1Nc1nc(Nc2ccc(N3CCC(N4CCN(C)CC4)CC3)cc2Cl)ncc1Cl [Example 77, N-(4,5-dichloro-2-((5-chloro-2-((2-chloro-4-(4-(4-methylpiperazin-1-yl)piperidin-1-yl)phenyl)amino)pyrimidin-4-yl)amino)phenyl)acetamide] | 500 to 2000 nM | 500 to 2000 nM | 500 to 2000 nM | 500 to 2000 nM
14 | COc1cc(N2CCC(N3CCN(C)CC3)CC2)c(C)cc1Nc1ncc(Cl)c(N(C)c2cc(Cl)c(Cl)cc2N(C)C(C)=O)n1 [Example 78, N-(4,5-dichloro-2-((5-chloro-2-((2-methoxy-5-methyl-4-(4-(4-methylpiperazin-1-yl)piperidin-1-yl)phenyl)amino)pyrimidin-4-yl)(methyl)amino)phenyl)-N-methylacetamide] | 2000 to 10000 nM | 2000 to 10000 nM | 2000 to 10000 nM | 2000 to 10000 nM

Second part, led by results:

Row | GI50 [1] | GI50 [3] | GI50 [4] | SMILES | GI50 [2]
15 | 100 to 500 nM | 25 to 100 nM | 25 to 100 nM | CN1CCN(C2CCN(c3ccc4cc(Nc5ncc(Br)c(Nc6ccc(F)cc6NS(C)(=O)=O)n5)ccc4n3)CC2)CC1 [Example 35, N-(2-((5-bromo-2-((2-(4-(4-methylpiperazin-1-yl)piperidin-1-yl)quinolin-6-yl)amino)pyrimidin-4-yl)amino)-5-fluorophenyl)methanesulfonamide] | 100 to 500 nM
16 | 500 to 2000 nM | 100 to 500 nM | 100 to 500 nM | COc1nc(N2CCN(C3CCN(C)CC3)CC2)ccc1Nc1ncc(Br)c(Nc2ccc(F)cc2NS(C)(=O)=O)n1 [Example 36, N-(2-((5-bromo-2-((2-methoxy-6-(4-(1-methylpiperidin-4-yl)piperazin-1-yl)pyridin-3-yl)amino)pyrimidin-4-yl)amino)-5-fluorophenyl)methanesulfonamide] | 2000 to 10000 nM
17 | 500 to 2000 nM | 100 to 500 nM | 25 to 100 nM | COc1cc(N2CCC(N3CCC(N(C)C)C3)CC2)c(C)cc1Nc1ncc(Br)c(Nc2ccc(F)cc2NS(C)(=O)=O)n1 (centres unmarked) [Example 40, N-(2-((5-bromo-2-((4-(4-(3-(dimethylamino)pyrrolidin-1-yl)piperidin-1-yl)-2-methoxy-5-methylphenyl)amino)pyrimidin-4-yl)amino)-5-fluorophenyl)methanesulfonamide] | 2000 to 10000 nM
18 | 100 to 500 nM | 25 to 100 nM | 25 to 100 nM | COc1cc(N2CCC(N3CCN(C)CC3)CC2)c(C)cc1Nc1ncc(Cl)c(Nc2ccccc2CS(C)(=O)=O)n1 [Example 62] | 500 to 2000 nM
19 | 100 to 500 nM | 25 to 100 nM | 25 to 100 nM | CN1CCN(C2CCN(c3ccc(Nc4ncc(Cl)c(Nc5ccccc5CS(C)(=O)=O)n4)cc3F)CC2)CC1 [Example 63] | 25 to 100 nM
20 | 25 to 100 nM | 1 to 25 nM | 1 to 25 nM | CC(=O)Nc1ccccc1Nc1nc(Nc2ccc(N3CCC(N4CCN(C)CC4)CC3)c(F)c2)ncc1Cl [Example 69, N-(2-((5-chloro-2-((3-fluoro-4-(4-(4-methylpiperazin-1-yl)piperidin-1-yl)phenyl)amino)pyrimidin-4-yl)amino)phenyl)acetamide] | 1 to 25 nM
21 | 100 to 500 nM | 100 to 500 nM | 100 to 500 nM | COc1cc(N2CCC(N3CCN(C)CC3)CC2)c(C)cc1Nc1ncc(Cl)c(Nc2cc(Cl)c(Cl)cc2NC(C)=O)n1 [Example 71, N-(4,5-dichloro-2-((5-chloro-2-((2-methoxy-5-methyl-4-(4-(4-methylpiperazin-1-yl)piperidin-1-yl)phenyl)amino)pyrimidin-4-yl)amino)phenyl)acetamide] | 500 to 2000 nM
22 | 100 to 500 nM | 100 to 500 nM | 100 to 500 nM | COc1cc(N2CCC(N3CCN(C)CC3)CC2)ccc1Nc1ncc(Cl)c(Nc2cc(Cl)c(Cl)cc2NC(C)=O)n1 [Example 75, N-(4,5-dichloro-2-((5-chloro-2-((2-methoxy-4-(4-(4-methylpiperazin-1-yl)piperidin-1-yl)phenyl)amino)pyrimidin-4-yl)amino)phenyl)acetamide] | 100 to 500 nM
23 | 100 to 500 nM | 100 to 500 nM | 100 to 500 nM | CC(=O)Nc1cc(Cl)c(Cl)cc1Nc1nc(Nc2ccc(N3CCC(N4CCN(C)CC4)CC3)c(F)c2)ncc1Cl [Example 76, N-(4,5-dichloro-2-((5-chloro-2-((3-fluoro-4-(4-(4-methylpiperazin-1-yl)piperidin-1-yl)phenyl)amino)pyrimidin-4-yl)amino)phenyl)acetamide] | 100 to 500 nM
